ChEMBL document CHEMBL1128789, “Constrained analogs of KCVFM with improved inhibitory properties against farnesyl transferase” (Bioorg Med Chem Lett, 1995)

Molecular target: Protein farnesyltransferase (Rattus norvegicus, UniProt Q02293+Q04631)
Test: Inhibition of farnesyl transferase (FTase) of rat brain

Row | IC50 [µM] | SMILES
1 | 0.005 | CSCC[C@H](NC(=O)[C@@H]1Cc2ccccc2CN1C(=O)[C@H](C(C)C)N(C)C(=O)[C@H](S)NC(=O)[C@H](N)CCCCN)C(=O)O
2 | 0.04 | CSCC[C@H](NC(=O)[C@@H]1Cc2ccccc2CN1C(=O)[C@@H](NC(=O)[C@H](S)NC(=O)[C@H](N)CCCCN)C(C)(C)C)C(=O)O
3 | 0.02 | CSCC[C@H](NC(=O)[C@@H]1Cc2ccccc2CN1C(=O)[C@@H](NC(=O)[C@H](S)NC(=O)C(N)CCCCN)C(C)C)C(=O)O (single isomer, unassigned)
4 | 100 | CSCC[C@H](NC(=O)[C@@H]1Cc2ccccc2CN1C(=O)C(NC(=O)[C@H](S)NC(=O)C(N)CCCCN)C(C)C)C(=O)O (single isomer, unassigned; form 1)
5 | 15 | CSCC[C@H](NC(=O)[C@@H]1Cc2ccccc2CN1C(=O)C(NC(=O)[C@H](S)NC(=O)C(N)CCCCN)C(C)C)C(=O)O (single isomer, unassigned; form 2)
6 | 100 | CSCC[C@H](NC(=O)[C@@H]1Cc2ccccc2CN1C(=O)[C@H](NC(=O)[C@H](CS)NC(=O)[C@@H](N)CCCCN)C(C)C)C(=O)O (stereo in doubt; form 1)
7 | 50 | CSCC[C@H](NC(=O)[C@@H]1Cc2ccccc2CN1C(=O)[C@H](NC(=O)[C@H](CS)NC(=O)[C@@H](N)CCCCN)C(C)C)C(=O)O (stereo in doubt; form 2)

The next lines start with the compound.

Row | SMILES | IC50 [µM]
8 | CSCC[C@H](NC(=O)[C@@H](NC(=O)[C@H](C(C)C)N(C)C(=O)[C@H](S)NC(=O)[C@H](N)CCCCN)c1ccccc1)C(=O)O | 1
9 | CSCC[C@H](NC(=O)[C@H]1Cc2ccccc2CN1C(=O)[C@H]1CCCN1C(=O)[C@H](CS)NC(=O)[C@@H](N)CCCCN)C(=O)O | 100
10 | CSCC[C@H](NC(=O)[C@@H](NC(=O)[C@@H](NC(=O)[C@H](S)NC(=O)[C@H](N)CCCCN)C(C)(C)C)c1ccccc1)C(=O)O | 1
11 | CSCC[C@H](NC(=O)[C@H](Cc1ccccc1)NC(=O)[C@H](C(C)C)N(C)C(=O)[C@H](S)NC(=O)[C@H](N)CCCCN)C(=O)O | 1
12 | CSCC[C@H](NC(=O)[C@H](Cc1ccccc1)NC(=O)[C@@H](NC(=O)[C@H](S)NC(=O)[C@H](N)CCCCN)C(C)C)C(=O)O | 1
13 | CSCC[C@H](NC(=O)[C@@H]1Cc2ccccc2CN1C(=O)[C@@H]1CCCN1C(=O)[C@H](S)NC(=O)C(N)CCCCN)C(=O)O (single isomer, unassigned) | 2
